From patent EP0719267B1, “SECOND MESSENGER CELL SIGNALING INHIBITORS” (CELL THERAPEUTICS, INC., priority 1993, dated 1994)
Like-named read-outs stand apart in the source and are kept apart here.

Legend:
[1] = tested on: murine thymocyte proliferation; test: Thymocyte proliferation co-stimulated by ConA and IL-2 (tritiated thymidine); assay type: cell-based, Balb/C mice; settings: for inhibition with delayed addition: 1 µM
[2] = tested on: murine splenocyte proliferation; test: Splenocyte (B cell) proliferation stimulated by anti-mu/anti-IgM and IL-4; assay type: cell-based; settings: Mus musculus, anti-IgM antibodies (10 µg/ml) and murine IL-4 (12.5 ng/ml)
Description: This example illustrates inhibitive effects of compounds nos. 27 and 28 on murine splenocyte proliferation stimulated by anti-mu ([…]) and interleukin-4 (IL-4, 12.5 ng/ml). This in vitro assay, described above, is indicative of immune-suppressive/autoimmune treatment assay emphasizing humoral or B cell immune response. The inventive compound was added to the cells at the doses indicated two hours prior to activation with anti-mu and IL-4. Both compounds nos. 27 and 28 inhibited splenocyte proliferation in a dose-response manner. IC50 values for compounds nos. Background counts were less than 200 cpm.
In figure 57, results shown illustrate that inventive compound no. 45 inhibits B cell proliferation. Murine splenocytes were stimulated with anti-IgM antibodies (10 µg/ml) and murine IL-4 (12.5 ng/ml). Cells were pulsed with ^3HTdR at 44 hours, harvested 4 hours later, and the incorporation of ^3H-TdR was determined by liquid scintillation.

murine splenocytes [3] = test: Anti-CD3 stimulated splenocyte proliferation; assay type: cell-based; settings: Mus musculus
Description: In the assay, murine splenocytes were activated with a monoclonal antibody directed against CD3 (1 µg/ml), resulting in an IL-2 mediated proliferative response.
45 (1 µM). […] The supernatants were harvested and assayed for cytokine levels using commercial ELISAs for proliferation.

murine splenocytes [4] = test: Anti-CD3 priming followed by IL-2 restimulation of splenocytes; assay type: cell-based; settings: 1 µM
Description: 53A. […] The cells were pulsed with ^3H-TdR for 4 hours and harvested and incorporation of ^3H-TdR determined.

[5] = tested on: anti-CD3-stimulated mouse splenocytes; test: Cytokine release from anti-CD3-stimulated splenocytes (ELISA); assay type: cell-based; settings: 1 µM, overnight
Description: Figures 59A, 59B and 59C report assay results investigating the effect of inventive compound no. 45 on cytokine release from anti-CD3-stimulated mouse splenocytes. […] 45 (1 µM). Concentrations chosen were approximately equal to IC50 values. The supernatants were harvested and assayed for cytokine levels using commercial ELISAs for proliferation. Anti-CD3 stimulated release of IL-2, IFN-γ and IL-4 (background levels for media control were negligible). […] However, compound no. […] Compound no.

[6] = tested on: human pulmonary smooth muscle cells; test: Growth factor-induced proliferation of pulmonary smooth muscle cells; assay type: cell-based; settings: 5 µM
Description: 58 on either aFGF or bFGF-induced proliferation in human pulmonary smooth muscle cells. Cells were grown in reduced serum (0.5% fetal calf serum) for 24 hours prior to stimulating with various concentrations of […]. Cells, stimulated with either aFGF or bFGF, were analyzed in the presence and absence of compound no. 58 (5 µM). Assay results are reported in figures 25A and 25B (aFGF and bFGF, respectively). As shown in the results, compound no.
Figures 65A-65F illustrate inhibition of proliferation in either human aortic or pulmonary smooth muscle cells (SMC) by inventive compound no. 58. Procedurally, cells were cultured in 0.5% serum containing medium 24 hours prior to stimulation with various concentrations of either PDGF (figs. 65A and 65B), acidic FGF (figs. 65C and 65D) or basic FGF (figs. 65E and 65F). Cells were stimulated for 24 hours prior to labeling with ^3H-TdR for 4 hours and harvested and counted by scintillation. Compound no. 58 was added 1 hour prior to stimulation at a concentration of 5 µM. Even at points of maximum stimulation of the growth factors, compound no. […] In addition cell number was assessed and those treated with compound no.

human TNFα = test: Whole blood ex vivo assay of TNF release (ELISA); assay type: cell-based; settings: mouse TNFα and human IL-1α, 6 hours
Description: Figure 74 illustrates that inventive compound no. […] 58 using a human whole blood ex vivo assay. In this assay, human whole blood was stimulated with mouse TNFα and human IL-1α with or without various concentrations of inventive compound no. 58. After 6 hours, the plasma was analyzed for human TNFα levels using a commercial ELISA.

CCCCCCCCNCC(O)CCCCCCCCCn1c(=O)c2c(ncn2C)n(C)c1=O (stereo not drawn) [compound no. 45]
inhibition with delayed addition ([1]; added 72 and 92 hours after IL-2): significant inhibition remained even at 72 and 92 hours following addition of IL-2 | inhibition with delayed addition ([1]; added 24 hours after IL-2): maximally inhibits thymocyte proliferation even when added 24 hours following the IL-2 stimulation | IC50 ([1]; Mus musculus, Thymocyte, Con A (0.25 µg/ml) and IL-2 (20 ng/ml), 96 hours): ~350 nM | IC50 [2]: 1200 nM | IC50 (murine splenocytes [3]; anti-CD3 (1 µg/ml), read-out: IC50): ~850 nM | IC50 (murine splenocytes [3]; read-out: concentration approximately equal to IC50 value): ~1000 nM | proliferation of anti-CD3 primed splenocytes, compound present with IL-2 (murine splenocytes [4]): proliferation was inhibited | response to IL-2 after compound present during anti-CD3 incubation (murine splenocytes [4]): did not block the splenocyte's ability to respond to IL-2 | IFN-γ release [5]: drastically inhibited IFN-γ release | IL-2 release [5]: did not significantly inhibit IL-2 release | IL-4 release [5]: only partially inhibits IL-4 release

COc1cc(CNCC(O)CCCCCCCCCn2c(=O)c3c(ncn3C)n(C)c2=O)cc(OC)c1OC (stereo not drawn) [compound no. 58, 1-[11-(3,4,5-Trimethoxybenzylamino)-10-hydroxyundecyl]-3,7-dimethylxanthine]
inhibition of aFGF and bFGF-induced proliferation [6]: a potent inhibitor of both aFGF and bFGF-induced proliferation | toxic effect [6]: No toxic effect | inhibition of proliferation at maximum stimulation by PDGF, acidic FGF or basic FGF ([6]; added 1 hour prior): completely inhibited cellular proliferation in both aortic and pulmonary SMC | TNF release (human TNFα): inhibited TNF release
